Assay results reported in US5190921A, “Amino acids and peptides having a modified tyrosine residue, their preparation and their application as medicaments” (Institut National de la Sante et de la Recherche Medicale …, priority 1988, dated 1993).
*1 amine or outer side, *2 acyl side, *3 side chain or, on linkers, in order; H or OH if unused. Where a SMILES comes first, the peptide text is derived from it. [ ]: non-standard residue; d: D form. The star is where a group is joined. X1 = CCCC[C@@H](NC(=O)CC(=O)*)NC(=O)[C@H](Cc1ccc(CS(=O)(=O)O)cc1)NC(C)=O; Phe(4-CH2SO3H) = N[C@@H](Cc1ccc(CS(=O)(=O)O)cc1)C(=O)O; X2 = O=C([C@@H](Cc1ccc(CS(=O)(=O)O)cc1)N[*:1])[*:2]; sY = N[C@@H](Cc1ccc(OS(=O)(=O)O)cc1)C(=O)O; NMeNle = CCCC[C@H](NC)C(=O)O; Nle = CCCC[C@H](N)C(=O)O; Boc = CC(C)(C)OC(=O)*

Assays:
[1] = molecular target: guinea pig pancreatic acini; test: Pancreatic amylase liberation test; format: cell-based; details: acini incubated 30 minutes at 37° C.; mean of three experiments in triplicate; read-out: Amylase secretion from guinea pig pancreatic acini, Agonist activity EC50
Experimental: Amylase secretion is measured after incubation of pancreatic acini for 30 minutes at 37° C. in the presence of the products under study, according to the experimental protocol described by Peikin et al., Am. J. Physiol., 235 (6), E 743-E 749, (1978). Amylase activity is determined using Phadebas reagent (Pharmacia), according to the method described by Ceska et al., Experientia, 25, 555 (1969). The values indicated in this table represent the mean of three separate experiments, each carried out in triplicate.

[2] = Enzymatic stability in crude rat brain membranes; format: in vitro ADME; details: enzymatic degradation in crude rat brain membranes; read-out: 1/2 life time
Experimental: The resistance of these analogs to enzymatic degradation was tested in crude rat brain membranes which contain at the same time aminopeptidasic, thiolproteasic and encephalinasic activity [Matsas et al. Febs. Lett. 175, 124 (1984); McDermott et al. Neurochem. Int. 5, 641 (1983)]. These compounds were tested according to the protocol previously described by Durieux et al. Neuropeptides 7, 1, (1986).

guinea pig ileum = test: Contraction-producing activity on guinea pig ileum; details: isolated ileum strips, Tyrode's solution, 37° C.; mean ± s.e.m. of three experiments; read-out: Contraction-producing activity on guinea pig ileum, Agonist activity EC50
Experimental: This test is carried out according to the method described by Hutchinson et al., Eur. J. Pharmacol., 69, 87 (1981). Strips from the terminal portion of the guinea pig ileum are rapidly sampled and fixed in the tank of an isometric gauge containing 25 cm^3 of Tyrode's solution. The solution is maintained at 37° C. while passing through it, bubble by bubble, a gas composed of 95% oxygen and 5% CO2. The compounds under study are tested in the conditions described by Ruiz-Gayo et al., Peptides, 6, 415, (1985).
The values indicated in this table represent the mean (± s.e.m.) of three separate experiments.

Row | SMILES | EC50 [1] | half-life [2] | EC50 (guinea pig ileum)
1 | CCCC[C@@H](NC(=O)CC(=O)N[C@@H](Cc1c[nH]c2ccccc12)C(=O)N(C)[C@@H](CCCC)C(=O)N[C@@H](CC(=O)O)C(=O)N[C@@H](Cc1ccccc1)C(N)=O)NC(=O)[C@H](Cc1ccc(OS(=O)(=O)O)cc1)NC(=O)OC(C)(C)C [Example 15, Boc-Tyr(SO3 Na)-gNle-mGly-Trp-(N-Me)Nle-Asp(Na)-Phe-NH2] | 0.35 nM | > 3 h | 1 nM
2 | CCCC[C@H](NC(=O)[C@H](Cc1c[nH]c2ccccc12)NC(=O)CNC(=O)[C@H](CCCC)NC(=O)[C@@H](Cc1ccc(CS(=O)(=O)O)cc1)NC(C)=O)C(=O)N[C@@H](CC(=O)O)C(=O)N[C@@H](Cc1ccccc1)C(N)=O [Example 14, Ac-D-Phe(p-CH2 SO3 Na)-NLe-Gly-Trp-NLe-Asp-PheNH2] (Ac-[X2][Nle]GW[Nle]DF-NH2) | 1.6 nM |  | 18 nM
3 | CSCC[C@H](NC(=O)[C@H](Cc1ccc(OS(=O)(=O)O)cc1)NC(=O)[C@@H](N)CC(=O)O)C(=O)NCC(=O)N[C@@H](Cc1c[nH]c2ccccc12)C(=O)N[C@@H](CCSC)C(=O)N[C@@H](CC(=O)O)C(=O)N[C@@H](Cc1ccccc1)C(N)=O [CCK8, Asp-Tyr(SO3 H)-Met-Gly-Trp-Met-Asp-Phe-NH2, reference compound] |  | 0.75 h | 
4 | CCCC[C@H](NC(=O)[C@H](Cc1ccc(CS(=O)(=O)O)cc1)NC(C)=O)C(=O)NCC(=O)N[C@@H](Cc1c[nH]c2ccccc12)C(=O)N[C@@H](CCCC)C(=O)N[C@@H](CC(=O)O)C(=O)N[C@@H](Cc1ccccc1)C(N)=O [Example 13, Ac-L-Phe(p-CH2 SO3 Na)-NLe-Gly-Trp-NLe-Asp-PheNH2] (Ac-[Phe(4-CH2SO3H)][Nle]GW[Nle]DF-NH2) | 0.33 nM |  | 3.8 nM
5 | CCCC[C@@H](NC(=O)CC(=O)N[C@@H](Cc1c[nH]c2ccccc12)C(=O)N(C)[C@@H](CCCC)C(=O)N[C@@H](CC(=O)O)C(=O)N[C@@H](Cc1ccccc1)C(N)=O)NC(=O)[C@H](Cc1ccc(CS(=O)(=O)O)cc1)NC(C)=O [Example 18, Ac-L-Phe(p-CH2 SO3 Na)-gNle-mGly-Trp-(N-Me)Nle-Asp-Phe-NH2] (X1-W[NMeNle]DF-NH2) | 642 nM | > 4.17 h | > 1000 nM
6 | CCCC[C@H](NC(=O)[C@H](Cc1ccc(OS(=O)(=O)O)cc1)NC(=O)OC(C)(C)C)C(=O)NCC(=O)N[C@@H](Cc1c[nH]c2ccccc12)C(=O)N(C)[C@@H](CCCC)C(=O)N[C@@H](CC(=O)O)C(=O)N[C@@H](Cc1ccccc1)C(N)=O [Example 16, Boc-Tyr(SO3 Na)-Nle-Gly-Trp-(N-Me)Nle-Asp(Na)-Phe-NH2] (Boc-[sY][Nle]GW[NMeNle]DF-NH2) | 377 nM | > 4.17 h | > 1000 nM
